The supplement of paper PMC10307832

Legend:
Assay in all cases: relative viability (nuclei count vs DMSO), 5 days (fraction); higher = more cells survive
[1] = compound: Cn1cc(-c2cnn3c(N)c(Br)c([C@@H]4CCCNC4)nc23)cn1
Summary of the method: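 Nuclei counted with MetaXpress define viability as the ratio of treated to vehicle wells, given as a median across plates. The lung cancer cell lines were in 1536-well plates, pinned with five √10-spaced library-drug doses and imaged at 4× after 5 days and Hoechst staining. Plates passed with control CV below 25% and at least one doubling.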

[2] = compound: Cn1cc(-c2cnn3c(N)c(Br)c([C@@H]4CCCNC4)nc23)cn1 + Cc1cc(Nc2cc(N3CCN(C)CC3)nc(Sc3ccc(NC(=O)C4CC4)cc3)n2)n[nH]1 [Tozasertib] (partner 0.1 µM)
Summary of the method: (§1)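 Relative viability is defined as nuclei in treated wells over nuclei in vehicle wells. Duplicate plates were run and medians reported. Lung cancer cell lines in 1536-well plates were dosed by pin tool one day after seeding, with one drug or with a fixed anchor-drug dose plus five library-drug doses (not always all listed) in √10 steps, and nuclei were counted after 5 days.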

[3] = compound: Cn1cc(-c2cnn3c(N)c(Br)c([C@@H]4CCCNC4)nc23)cn1 + Nc1nc2[nH]cc(CCc3ccc(C(=O)N[C@@H](CCC(=O)O)C(=O)O)cc3)c2c(=O)[nH]1 [Pemetrexed] (partner 0.2 µM)
Summary of the method: as §1

[4] = compound: Cn1cc(-c2cnn3c(N)c(Br)c([C@@H]4CCCNC4)nc23)cn1 + CC(=O)c1c(C)c2cnc(Nc3ccc(N4CCNCC4)cn3)nc2n(C2CCCC2)c1=O [Palbociclib] (partner 0.5 µM)
Summary of the method: as §1

[5] = compound: Cn1cc(-c2cnn3c(N)c(Br)c([C@@H]4CCCNC4)nc23)cn1 + Cc1nc(Nc2ncc(C(=O)Nc3c(C)cccc3Cl)s2)cc(N2CCN(CCO)CC2)n1 [Dasatinib] (partner 0.075 µM)
Summary of the method: as §1

[6] = compound: Cn1cc(-c2cnn3c(N)c(Br)c([C@@H]4CCCNC4)nc23)cn1 + O=C(c1cc(Cc2n[nH]c(=O)c3ccccc23)ccc1F)N1CCN(C(=O)C2CC2)CC1 [Olaparib] (partner 8 µM)
Summary of the method: as §1

[7] = compound: Cn1cc(-c2cnn3c(N)c(Br)c([C@@H]4CCCNC4)nc23)cn1 + CCNC(=O)c1noc(-c2cc(C(C)C)c(O)cc2O)c1-c1ccc(CN2CCOCC2)cc1 [Luminespib] (partner 0.01 µM)
Summary of the method: as §1

[8] = compound: Cn1cc(-c2cnn3c(N)c(Br)c([C@@H]4CCCNC4)nc23)cn1 + Nc1ncn([C@H]2C[C@H](O)[C@@H](CO)O2)c(=O)n1 [Decitabine] (partner 2 µM)
Summary of the method: as §1

[9] = compound: Cn1cc(-c2cnn3c(N)c(Br)c([C@@H]4CCCNC4)nc23)cn1 + COc1cccc2cc(-c3nc([C@H]4CC[C@H](C(=O)O)CC4)n4ncnc(N)c34)[nH]c12 [OSI-027] (partner 0.5 µM)
Summary of the method: as §1

[10] = compound: Cn1cc(-c2cnn3c(N)c(Br)c([C@@H]4CCCNC4)nc23)cn1 + N=C(N)NC(=N)NCCc1ccccc1 [Phenformin] (partner 250 µM)
Summary of the method: as §1

[11] = compound: Cn1cc(-c2cnn3c(N)c(Br)c([C@@H]4CCCNC4)nc23)cn1 + NC(=O)Nc1cc(-c2cccc(F)c2)sc1C(=O)N[C@H]1CCCNC1 [AZD7762] (partner 0.2 µM)
Summary of the method: as §1

[12] = compound: Cn1cc(-c2cnn3c(N)c(Br)c([C@@H]4CCCNC4)nc23)cn1 + O=C(CCCCCCC(=O)Nc1ccccc1)NO [Vorinostat] (partner 1 µM)
Summary of the method: as §1

[13] = compound: Cn1cc(-c2cnn3c(N)c(Br)c([C@@H]4CCCNC4)nc23)cn1 + CC(=O)Nc1cccc(-n2c(=O)n(C3CC3)c(=O)c3c(Nc4ccc(I)cc4F)n(C)c(=O)c(C)c32)c1 [Trametinib] (partner 0.02 µM)
Summary of the method: as §1

[14] = compound: Cn1cc(-c2cnn3c(N)c(Br)c([C@@H]4CCCNC4)nc23)cn1 + COc1cc2c(Oc3ccc(NC(=O)C4(C(=O)Nc5ccc(F)cc5)CC4)cc3F)ccnc2cc1OCCCN1CCOCC1 [Foretinib] (partner 0.25 µM)
Summary of the method: as §1

## NCI-H522
[1]; 0.05 µM
  relative viability: 0.927
[1]; 0.1581 µM
  relative viability: 0.986
[1]; 0.5 µM
  relative viability: 0.879
[1]; 1.581 µM
  relative viability: 0.828
[1]; 5 µM
  relative viability: 1.02
[2]; first compound 0.05 µM
  relative viability: 0.575
[2]; first compound 0.1581 µM
  relative viability: 0.638
[2]; first compound 0.5 µM
  relative viability: 0.6
[2]; first compound 1.581 µM
  relative viability: 0.577
[2]; first compound 5 µM
  relative viability: 0.543
[3]; first compound 0.05 µM
  relative viability: 0.938
[3]; first compound 0.1581 µM
  relative viability: 0.913
[3]; first compound 0.5 µM
  relative viability: 1.02
[3]; first compound 1.581 µM
  relative viability: 1.01
[3]; first compound 5 µM
  relative viability: 0.865
[4]; first compound 0.05 µM
  relative viability: 1.1
[4]; first compound 0.1581 µM
  relative viability: 0.918
[4]; first compound 0.5 µM
  relative viability: 0.757
[4]; first compound 1.581 µM
  relative viability: 1.07
[4]; first compound 5 µM
  relative viability: 0.95
[5]; first compound 0.05 µM
  relative viability: 0.785
[5]; first compound 0.1581 µM
  relative viability: 0.849
[5]; first compound 0.5 µM
  relative viability: 0.551
[5]; first compound 1.581 µM
  relative viability: 0.828
[5]; first compound 5 µM
  relative viability: 0.831
[6]; first compound 0.05 µM
  relative viability: 0.674
[6]; first compound 0.1581 µM
  relative viability: 0.749
[6]; first compound 0.5 µM
  relative viability: 0.68
[6]; first compound 1.581 µM
  relative viability: 0.523
[6]; first compound 5 µM
  relative viability: 0.633
[7]; first compound 0.05 µM
  relative viability: 1.23
[7]; first compound 0.1581 µM
  relative viability: 1.26
[7]; first compound 0.5 µM
  relative viability: 1.17
[7]; first compound 1.581 µM
  relative viability: 1
[7]; first compound 5 µM
  relative viability: 0.87
[8]; first compound 0.05 µM
  relative viability: 0.675
[8]; first compound 0.1581 µM
  relative viability: 0.619
[8]; first compound 0.5 µM
  relative viability: 0.664
[8]; first compound 1.581 µM
  relative viability: 0.669
[8]; first compound 5 µM
  relative viability: 0.642
[9]; first compound 0.05 µM
  relative viability: 0.344
[9]; first compound 0.1581 µM
  relative viability: 0.685
[9]; first compound 0.5 µM
  relative viability: 0.748
[9]; first compound 1.581 µM
  relative viability: 0.681
[9]; first compound 5 µM
  relative viability: 0.661
[10]; first compound 0.05 µM
  relative viability: 0.69
[10]; first compound 0.1581 µM
  relative viability: 0.625
[10]; first compound 0.5 µM
  relative viability: 0.642
[10]; first compound 1.581 µM
  relative viability: 0.669
[10]; first compound 5 µM
  relative viability: 0.664
[11]; first compound 0.05 µM
  relative viability: 0.616
[11]; first compound 0.1581 µM
  relative viability: 0.812
[11]; first compound 0.5 µM
  relative viability: 0.882
[11]; first compound 1.581 µM
  relative viability: 0.763
[11]; first compound 5 µM
  relative viability: 0.748
[12]; first compound 0.05 µM
  relative viability: 0.845
[12]; first compound 0.1581 µM
  relative viability: 0.936
[12]; first compound 0.5 µM
  relative viability: 0.871
[12]; first compound 1.581 µM
  relative viability: 0.842
[12]; first compound 5 µM
  relative viability: 0.797
[13]; first compound 0.05 µM
  relative viability: 0.852
[13]; first compound 0.1581 µM
  relative viability: 0.754
[13]; first compound 0.5 µM
  relative viability: 0.699
[13]; first compound 1.581 µM
  relative viability: 0.802
[13]; first compound 5 µM
  relative viability: 0.579

## NCI-H1623
[1]; 0.05 µM
  relative viability: 0.984
[1]; 0.1581 µM
  relative viability: 0.9
[1]; 0.5 µM
  relative viability: 1.04
[1]; 1.581 µM
  relative viability: 0.942
[1]; 5 µM
  relative viability: 0.755
[2]; first compound 0.05 µM
  relative viability: 0.425
[2]; first compound 0.1581 µM
  relative viability: 0.421
[2]; first compound 0.5 µM
  relative viability: 0.467
[2]; first compound 1.581 µM
  relative viability: 0.41
[2]; first compound 5 µM
  relative viability: 0.38
[14]; first compound 0.05 µM
  relative viability: 0.811
[14]; first compound 0.1581 µM
  relative viability: 0.831
[14]; first compound 0.5 µM
  relative viability: 0.97
[14]; first compound 1.581 µM
  relative viability: 0.844
[14]; first compound 5 µM
  relative viability: 0.606
[5]; first compound 0.05 µM
  relative viability: 0.475
[5]; first compound 0.1581 µM
  relative viability: 0.474
[5]; first compound 0.5 µM
  relative viability: 0.536
[5]; first compound 1.581 µM
  relative viability: 0.477
[5]; first compound 5 µM
  relative viability: 0.399
[7]; first compound 0.05 µM
  relative viability: 0.41
[7]; first compound 0.1581 µM
  relative viability: 0.399
[7]; first compound 0.5 µM
  relative viability: 0.538
[7]; first compound 1.581 µM
  relative viability: 0.851
[7]; first compound 5 µM
  relative viability: 0.322
[9]; first compound 0.05 µM
  relative viability: 0.426
[9]; first compound 0.1581 µM
  relative viability: 0.456
[9]; first compound 0.5 µM
  relative viability: 0.407
[9]; first compound 1.581 µM
  relative viability: 0.418
[9]; first compound 5 µM
  relative viability: 0.382
[10]; first compound 0.05 µM
  relative viability: 0.561
[10]; first compound 0.1581 µM
  relative viability: 0.628
[10]; first compound 0.5 µM
  relative viability: 0.632
[10]; first compound 1.581 µM
  relative viability: 0.567
[10]; first compound 5 µM
  relative viability: 0.432
